{"source": "paper PMC11201819", "about": "(Protein Science : A Publication of the Protein Society, 2024)", "key": {"[1]": {"target": "T1, CLsoDHDPS (dihydrodipicolinate synthase) (Candidatus Liberibacter solanacearum, UniProt A0A0F4VK59)", "T1 construct": "gene dapA", "T1 sequence (A0A0F4VK59 1-296)": "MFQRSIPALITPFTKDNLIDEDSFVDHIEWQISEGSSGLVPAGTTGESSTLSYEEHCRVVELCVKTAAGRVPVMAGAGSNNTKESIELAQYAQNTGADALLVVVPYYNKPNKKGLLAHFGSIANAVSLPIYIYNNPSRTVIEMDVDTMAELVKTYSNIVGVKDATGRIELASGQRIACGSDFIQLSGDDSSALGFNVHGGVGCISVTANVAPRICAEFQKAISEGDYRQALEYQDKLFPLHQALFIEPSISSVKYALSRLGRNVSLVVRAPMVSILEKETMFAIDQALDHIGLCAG", "type": "binding"}, "[2]": {"target": "T1, CLsoDHDPS (dihydrodipicolinate synthase)", "assay": "biochemical"}, "[3]": {"target": "T1, CLsoDHDPS (dihydrodipicolinate synthase)", "assay": "biochemical", "remark": "listed apart in the source"}, "N[C@@H](CC=O)C(=O)O": {"system": "N[C@@H](CC=O)C(=O)O", "assay": "purified protein"}}, "data": [{"compound": "O=CCCC(=O)O", "note": "[SSA, succinic semi‐aldehyde]", "values": [{"measurement": "X-ray crystal structure (1.93 Å) with pyruvate", "setting": "[1]", "value": "continuous density between Lys162, pyruvate, and succinic semi‐aldehyde such that the carbon–carbon bond between these substrates has formed"}]}, {"compound": "NCCCC[C@H](N)C(=O)O", "note": "[lysine]", "values": [{"measurement": "Ki", "setting": "[2]", "value": "121 ± 5", "unit": "µM"}]}, {"compound": "CC(=O)C(=O)O", "note": "[pyruvate]", "values": [{"measurement": "Kd", "setting": "[3]", "value": "2 ± 0.7", "unit": "µM"}]}, {"compound": "CLsoDHDPS (dihydrodipicolinate synthase) (Candidatus Liberibacter solanacearum)", "values": [{"measurement": "Km", "setting": "N[C@@H](CC=O)C(=O)O", "value": "33 ± 3", "unit": "µM"}, {"measurement": "kcat", "setting": "N[C@@H](CC=O)C(=O)O", "value": "6 ± 0.2", "unit": "s⁻¹"}, {"measurement": "kcat/Km", "setting": "N[C@@H](CC=O)C(=O)O", "value": 180000, "unit": "M⁻¹ s⁻¹"}]}]}
